For test [1], the target named is T1, (Mus musculus, UniProt Q923E4).
T1 construct: endogenous in cells; host or cells: WT-1 murine brown preadipocytes
T1 sequence (Q923E4 2-737 limits assumed): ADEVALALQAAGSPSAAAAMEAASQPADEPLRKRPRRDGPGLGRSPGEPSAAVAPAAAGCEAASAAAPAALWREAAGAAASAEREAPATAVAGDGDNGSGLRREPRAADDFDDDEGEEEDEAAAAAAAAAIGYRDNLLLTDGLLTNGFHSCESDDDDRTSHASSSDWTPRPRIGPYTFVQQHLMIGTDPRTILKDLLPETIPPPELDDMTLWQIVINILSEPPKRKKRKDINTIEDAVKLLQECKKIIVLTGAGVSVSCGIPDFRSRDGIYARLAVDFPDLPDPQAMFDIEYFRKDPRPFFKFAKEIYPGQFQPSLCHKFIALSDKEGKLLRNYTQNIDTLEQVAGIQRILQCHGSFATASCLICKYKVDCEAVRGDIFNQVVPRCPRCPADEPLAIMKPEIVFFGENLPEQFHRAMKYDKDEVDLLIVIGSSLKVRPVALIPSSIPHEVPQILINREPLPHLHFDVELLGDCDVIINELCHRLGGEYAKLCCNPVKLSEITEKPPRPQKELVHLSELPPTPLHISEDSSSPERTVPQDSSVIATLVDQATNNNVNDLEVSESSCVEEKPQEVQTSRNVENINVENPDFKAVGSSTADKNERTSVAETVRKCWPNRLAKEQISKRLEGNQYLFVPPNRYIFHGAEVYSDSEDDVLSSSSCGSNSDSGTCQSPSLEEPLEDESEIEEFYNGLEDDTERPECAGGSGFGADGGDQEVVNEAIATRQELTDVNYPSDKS
Briefly: EX 527 effect on FGF6-induced UCP1 and PTGS2 expression in WT-1 preadipocytes. Particulars: 50 uM pretreatment 3 hours, then EX and FGF6 18 hours. It is filed as cell-based, murine. The procedure: (§1) To determine if the […] pathway is utilized by FGF6 to regulate UCP1 expression and mitochondrial function, WT-1 preadipocytes were pretreated with the […] selective inhibitor EX (EX 527; Santa Cruz Biotechnology) at concentrations of 0 uM or 50 uM in growth media (DMEM+10% FBS) for 3 hours. Following EX treatment, the cells were treated with EX and FGF6 for 18 hours.

The next test addresses T2, Sirt2 (Mus musculus, UniProt Q923E4).
T2 construct: endogenous in cells; host or cells: WT-1 murine brown preadipocytes
T2 sequence (Q923E4 2-737 limits assumed): T1 sequence (Q923E4 2-737 limits assumed)
The test is described as above. It is filed as cell-based, murine. The settings on record: 50 uM pretreatment 3 hours, then EX and FGF6 18 hours. The procedure:
as §1

The results in this text go back to patent US20170173114A1, “METHODS AND COMPOSITIONS FOR INDUCTION OF UCP1 EXPRESSION” (Joslin Diabetes Center, Inc., priority 2014, published 2017).

“Also recorded” adds a separate entry of the source.

As to `NC(=O)C1CCCc2c1[nH]c1ccc(Cl)cc21` (centres unmarked) [EX], the “FGF6-induced PTGS2 expression level” value in test [1] is recorded as “reduced; also recorded: suppression”. Further, the “FGF6-induced UCP1 mRNA expression” value at Sirt2 is “inhibited UCP1 expression; also recorded: suppression”.
